According to patent US8993542B2, “Methods of treating viral infections” (priority 2008, dated 2015):

How the values were obtained:
[1] = system: HIV; assay: microbe, parasite or virus in culture; format: cell-based
[2] = system: HIV-1IIIB; assay: Two-drug combination antiviral assay in CEM cells (CPE), MacSynergy II; format: cell-based; details: in combination with CMX157, CEM-SS cells, 95% confidence

Question: Which IC50 ([1]; Human immunodeficiency virus 1, PANEL 1, WT) does the source give for `Nc1nc(NC2CC2)c2ncn([C@H]3C=C[C@@H](CO)C3)c2n1` [ABC, abacavir] here?
Answer: 1.52 µM

Question: What about the IC50 ([1]; Human immunodeficiency virus 1, PANEL 2, WT) of the same compound?
Answer: 1.67 µM

Question: What about the IC50 ([1]; Human immunodeficiency virus 1, PANEL 3, 6 TAMs, no 184) of the same compound?
Answer: 7.87 µM

Question: What about the IC50 ([1]; Human immunodeficiency virus 1, PANEL 6, 6 TAMs + 184) of the same compound?
Answer: 14 µM

Question: What about the IC50 ([1]; Human immunodeficiency virus 1, PANEL 7, 184V) of the same compound?
Answer: 4.78 µM

Question: What about the IC50 ([1]; Human immunodeficiency virus 1, PANEL 9, 69ins, no 184) of the same compound?
Answer: 32.6 µM

Question: And the IC50 ([1]; Human immunodeficiency virus 1, PANEL 12, 69ins + 184)?
Answer: 46.5 µM

Question: And the IC50 ([1]; Human immunodeficiency virus 1, PANEL 14, 65R, no 184)?
Answer: 5.69 µM

Question: What about the IC50 ([1]; Human immunodeficiency virus 1, PANEL 15, 65R + 184V) of the same compound?
Answer: 11.8 µM

Question: And the IC50 ([1]; Human immunodeficiency virus 1, PANEL 17, L74V)?
Answer: 3.36 µM

Question: What about the IC50 ([1]; Human immunodeficiency virus 1, PANEL 19, L74V + M184V) of the same compound?
Answer: 9.24 µM

Question: And the IC50 ([1]; Human immunodeficiency virus 1, PANEL 26, 151M, no 184)?
Answer: 34.3 µM

Question: And the IC50 ([1]; Human immunodeficiency virus 1, PANEL 28, 151M + 184)?
Answer: > 52 µM

Question: And the IC50 ([1]; Human immunodeficiency virus 1, PANEL 29, L74V − SDM)?
Answer: 3.29 µM

Question: What about the IC50 ([1]; Human immunodeficiency virus 1, PANEL 30, M184V − SDM) of the same compound?
Answer: 4.68 µM

Question: And the IC50 ([1]; Human immunodeficiency virus 1, PANEL 31, K65R − SDM)?
Answer: 4.56 µM

Question: And the IC50 ([1]; Human immunodeficiency virus 1, PANEL 33, T215Y)?
Answer: 3.67 µM

Question: What about the IC50 ([1]; Human immunodeficiency virus 1, PANEL 34, T215Y + M184V) of the same compound?
Answer: 7.61 µM

Question: And the IC50 ([1]; Human immunodeficiency virus 1, PANEL 35, M41L + T215Y)?
Answer: 3.36 µM

Question: What about the IC50 ([1]; Human immunodeficiency virus 1, PANEL 37, M41L + T215Y + M184V) of the same compound?
Answer: 9.6 µM

Question: And the IC50 ([1]; Human immunodeficiency virus 1, PANEL 38, M41L + L210W + T215Y)?
Answer: 4.97 µM

Question: What about the IC50 ([1]; Human immunodeficiency virus 1, PANEL 39, M41L + L210W + T215Y) of the same compound?
Answer: 4.19 µM

Question: And the IC50 ([1]; Human immunodeficiency virus 1, PANEL 40, M41L + L210W + T215Y + M184V)?
Answer: 8.17 µM

Question: What about the IC50 ([1]; Human immunodeficiency virus 1, PANEL 41, M41L + L210W + T215Y + M184V) of the same compound?
Answer: 8.92 µM

Question: And the IC50 ([1]; Human immunodeficiency virus 1, PANEL 42, D67N + K70R)?
Answer: 2.48 µM

Question: And the IC50 ([1]; Human immunodeficiency virus 1, PANEL 44, D67N + K70R + T215F + K219E + M184V)?
Answer: 7.73 µM

Question: What about the IC50 ([1]; Human immunodeficiency virus 1, PANEL 45, L210W + T215Y) of the same compound?
Answer: 3.64 µM

Question: And the IC50 ([1]; Human immunodeficiency virus 1, PANEL 46, D67N + K70E)?
Answer: 2.42 µM

Question: And the IC50 ([1]; Human immunodeficiency virus 1, PANEL 47, D67N + K70E + M184V)?
Answer: 5.05 µM

Question: What about the IC50 ([1]; Human immunodeficiency virus 1, PANEL 48, K70E + M184V) of the same compound?
Answer: 10.4 µM

Question: And the “IC50 Fold Change” value ([1]; PANEL 1, WT)?
Answer: 0.86

Question: And the “IC50 Fold Change” value ([1]; PANEL 2, WT)?
Answer: 0.94

Question: And the “IC50 Fold Change” value ([1]; PANEL 3, 6 TAMs, no 184)?
Answer: 4.43

Question: And the “IC50 Fold Change” value ([1]; PANEL 6, 6 TAMs + 184)?
Answer: 7.91

Question: What about the “IC50 Fold Change” value ([1]; PANEL 7, 184V) of the same compound?
Answer: 2.69

Question: And the “IC50 Fold Change” value ([1]; PANEL 9, 69ins, no 184)?
Answer: 18.00

Question: And the “IC50 Fold Change” value ([1]; PANEL 12, 69ins + 184)?
Answer: 26.00

Question: And the “IC50 Fold Change” value ([1]; PANEL 14, 65R, no 184)?
Answer: 3.20

Question: What about the “IC50 Fold Change” value ([1]; PANEL 15, 65R + 184V) of the same compound?
Answer: 6.64

Question: What about the “IC50 Fold Change” value ([1]; PANEL 17, L74V) of the same compound?
Answer: 1.89

Question: What about the “IC50 Fold Change” value ([1]; PANEL 19, L74V + M184V) of the same compound?
Answer: 5.21

Question: What about the “IC50 Fold Change” value ([1]; PANEL 26, 151M, no 184) of the same compound?
Answer: 19.00

Question: And the “IC50 Fold Change” value ([1]; PANEL 28, 151M + 184)?
Answer: >29.2959

Question: What about the “IC50 Fold Change” value ([1]; PANEL 29, L74V − SDM) of the same compound?
Answer: 1.85

Question: What about the “IC50 Fold Change” value ([1]; PANEL 30, M184V − SDM) of the same compound?
Answer: 2.64

Question: What about the “IC50 Fold Change” value ([1]; PANEL 31, K65R − SDM) of the same compound?
Answer: 2.57

Question: And the “IC50 Fold Change” value ([1]; PANEL 33, T215Y)?
Answer: 2.06

Question: What about the “IC50 Fold Change” value ([1]; PANEL 34, T215Y + M184V) of the same compound?
Answer: 4.29

Question: What about the “IC50 Fold Change” value ([1]; PANEL 35, M41L + T215Y) of the same compound?
Answer: 1.89

Question: What about the “IC50 Fold Change” value ([1]; PANEL 37, M41L + T215Y + M184V) of the same compound?
Answer: 5.41

Question: What about the “IC50 Fold Change” value ([1]; PANEL 38, M41L + L210W + T215Y) of the same compound?
Answer: 2.80

Question: And the “IC50 Fold Change” value ([1]; PANEL 39, M41L + L210W + T215Y)?
Answer: 2.36

Question: And the “IC50 Fold Change” value ([1]; PANEL 40, M41L + L210W + T215Y + M184V)?
Answer: 4.60

Question: What about the “IC50 Fold Change” value ([1]; PANEL 41, M41L + L210W + T215Y + M184V) of the same compound?
Answer: 5.02

Question: And the “IC50 Fold Change” value ([1]; PANEL 42, D67N + K70R)?
Answer: 1.40

Question: What about the “IC50 Fold Change” value ([1]; PANEL 44, D67N + K70R + T215F + K219E + M184V) of the same compound?
Answer: 4.36

Question: What about the “IC50 Fold Change” value ([1]; PANEL 45, L210W + T215Y) of the same compound?
Answer: 2.05

Question: What about the “IC50 Fold Change” value ([1]; PANEL 46, D67N + K70E) of the same compound?
Answer: 1.36

Question: What about the “IC50 Fold Change” value ([1]; PANEL 47, D67N + K70E + M184V) of the same compound?
Answer: 2.85

Question: What about the “IC50 Fold Change” value ([1]; PANEL 48, K70E + M184V) of the same compound?
Answer: 5.88

Question: What about the “Antagonism Volume, Result 1” value [2] of the same compound?
Answer: −35.8 nM^2 %, μM^2 % or nMμM %

Question: What about the “Antagonism Volume, Result 2” value [2] of the same compound?
Answer: −2.32 nM^2 %, μM^2 % or nMμM %

Question: What about the “Antagonism Volume, Result 3” value [2] of the same compound?
Answer: −12.1 nM^2 %, μM^2 % or nMμM %

Question: And the “Mean Antagonism Volume (n = 3)” value [2]?
Answer: −16.7 nM^2 %, μM^2 % or nMμM %

Question: What about the “Mean Synergy Volume (n = 3)” value [2] of the same compound?
Answer: 14.9 nM^2 %, μM^2 % or nMμM %

Question: And the “Synergy Volume, Result 1” value [2]?
Answer: 25.1 nM^2 %, μM^2 % or nMμM %

Question: What about the “Synergy Volume, Result 2” value [2] of the same compound?
Answer: 0 nM^2 %, μM^2 % or nMμM %

Question: And the “Synergy Volume, Result 3” value [2]?
Answer: 19.7 nM^2 %, μM^2 % or nMμM %
